Data on 20 compounds can be found in patent US11878970B2, “Allosteric chromenone inhibitors of phosphoinositide 3-kinase (PI3K) for the treatment of disease” (Petra Pharma Corporation, priority 2021, dated 2024).

For assay [1], the target named is T1, PI3K-α (PIK3CA) wild-type (WT), p110α/p85α complex (Homo sapiens, UniProt P42336).
T1 construct: Recombinant, catalytically active human full length PIK3KA Wild-type and H1047R mutant; 6×His (N); purchased EMD Millipore Sigma 14-602M
The experiment in a line: PI3K-alpha kinase (PIK3CA) biochemical activity, ADP-Glo, wild-type. The conditions noted are these: Soy PI lipid substrate. A digest of the protocol: (§1)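 ADP formation measured by ADP-Glo luminescence after reaction at 27 °C to about 10% ATP turnover, using 20 uM ATP, 50 uM PIP2diC8 or soy PI lipid, HEPES pH 7.4 with MgCl2. Enzyme (1-5 nM WT or H1047R p110α/p85α) and compound preincubated 1 h first; 10-point 1:3 curves fitted four-parameter for IC50.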
Background: ADP-Glo first removes unused ATP, then detects ADP through luciferase.

Assay [2] deals with PI3K-α (PIK3CA) in MDA-MB-453 cells (Homo sapiens, UniProt P42336). The assay is described as follows: PI3K-alpha kinase (PIK3CA) in vitro cell based assay, MDA-MB-453 cells, SureFire Ultra AlphaLisa. The note with it: read-out: PI3K-α (PIK3CA) in vitro cell based assay IC50. A digest of the protocol: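 Cells treated 3 h in serum-free MEM with 1 μg/mL insulin, 10-point 1:3 series in 0.3% DMSO, then lysed for SureFire Ultra AlphaLisa read-out. Inhibition normalized to DMSO (max) and 1 μM GDC-0032 (min); duplicate averages fitted by 4-parameter logistic for relative IC50.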

Assay [3] addresses T2, PI3K-α (PIK3CA) H1047R mutant, p110α/p85α complex (Homo sapiens, UniProt P42336, H1047R).
T2 construct: Recombinant, catalytically active human full length PIK3KA Wild-type and H1047R mutant; 6×His (N); purchased EMD Millipore Sigma 14-792M
The experiment in a line: PI3K-alpha kinase (PIK3CA) biochemical activity, ADP-Glo, H1047R mutant. The note with it: Soy PI lipid substrate. An outline of the steps: as §1

Usually IC50 stands for the concentration at which inhibition is half-maximal.

Each structure is given as a SMILES string. Some results are limits rather than exact numbers.

T2 sequence (P42336 whole entry H1047R): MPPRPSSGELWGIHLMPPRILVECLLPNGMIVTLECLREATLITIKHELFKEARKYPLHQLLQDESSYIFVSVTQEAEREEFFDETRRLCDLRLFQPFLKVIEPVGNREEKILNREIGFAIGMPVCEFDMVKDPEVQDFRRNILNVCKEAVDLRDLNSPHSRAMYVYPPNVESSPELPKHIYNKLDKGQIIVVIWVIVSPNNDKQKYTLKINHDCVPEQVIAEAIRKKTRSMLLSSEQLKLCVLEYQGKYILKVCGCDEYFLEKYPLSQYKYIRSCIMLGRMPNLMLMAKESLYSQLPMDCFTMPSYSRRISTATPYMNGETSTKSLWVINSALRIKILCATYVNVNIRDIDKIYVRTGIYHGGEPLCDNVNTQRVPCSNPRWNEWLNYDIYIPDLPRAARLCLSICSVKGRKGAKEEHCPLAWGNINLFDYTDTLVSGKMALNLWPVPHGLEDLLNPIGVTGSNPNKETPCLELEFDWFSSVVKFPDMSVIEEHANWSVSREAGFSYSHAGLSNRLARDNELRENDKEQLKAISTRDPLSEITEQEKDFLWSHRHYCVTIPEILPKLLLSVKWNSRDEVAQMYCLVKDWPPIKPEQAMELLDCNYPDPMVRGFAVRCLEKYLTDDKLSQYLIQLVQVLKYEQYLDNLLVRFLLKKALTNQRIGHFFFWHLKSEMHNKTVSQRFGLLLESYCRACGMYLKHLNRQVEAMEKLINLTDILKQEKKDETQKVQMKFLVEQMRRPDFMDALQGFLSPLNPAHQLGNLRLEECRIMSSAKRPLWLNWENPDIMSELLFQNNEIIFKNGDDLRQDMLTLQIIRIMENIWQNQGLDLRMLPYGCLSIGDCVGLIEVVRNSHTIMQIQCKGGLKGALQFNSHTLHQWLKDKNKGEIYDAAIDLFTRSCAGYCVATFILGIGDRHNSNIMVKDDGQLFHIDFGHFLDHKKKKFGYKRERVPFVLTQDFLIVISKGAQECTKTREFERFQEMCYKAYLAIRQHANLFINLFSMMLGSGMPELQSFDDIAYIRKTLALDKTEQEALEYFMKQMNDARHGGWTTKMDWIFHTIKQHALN
T2 sequence (P27986 whole entry partner): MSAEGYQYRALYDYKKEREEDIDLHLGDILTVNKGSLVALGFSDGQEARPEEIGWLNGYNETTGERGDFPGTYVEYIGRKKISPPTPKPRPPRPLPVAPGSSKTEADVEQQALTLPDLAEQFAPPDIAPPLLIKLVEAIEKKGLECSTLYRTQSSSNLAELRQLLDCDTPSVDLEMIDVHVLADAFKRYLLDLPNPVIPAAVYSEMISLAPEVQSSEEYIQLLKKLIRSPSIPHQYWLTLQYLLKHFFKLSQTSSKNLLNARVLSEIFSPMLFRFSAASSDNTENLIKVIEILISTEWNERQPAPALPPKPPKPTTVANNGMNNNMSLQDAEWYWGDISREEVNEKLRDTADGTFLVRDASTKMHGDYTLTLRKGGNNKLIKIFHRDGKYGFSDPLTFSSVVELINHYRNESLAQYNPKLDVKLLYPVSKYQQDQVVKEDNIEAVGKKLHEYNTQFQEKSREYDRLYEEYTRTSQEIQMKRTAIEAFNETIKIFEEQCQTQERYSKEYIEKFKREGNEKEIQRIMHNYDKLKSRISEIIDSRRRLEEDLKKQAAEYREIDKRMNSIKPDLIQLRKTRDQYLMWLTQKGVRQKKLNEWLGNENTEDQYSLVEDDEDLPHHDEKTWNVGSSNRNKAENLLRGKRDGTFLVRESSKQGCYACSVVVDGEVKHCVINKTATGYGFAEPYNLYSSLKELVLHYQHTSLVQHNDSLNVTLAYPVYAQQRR
PI3K-α (PIK3CA) in MDA-MB-453 cells, sequence (P27986 2-724): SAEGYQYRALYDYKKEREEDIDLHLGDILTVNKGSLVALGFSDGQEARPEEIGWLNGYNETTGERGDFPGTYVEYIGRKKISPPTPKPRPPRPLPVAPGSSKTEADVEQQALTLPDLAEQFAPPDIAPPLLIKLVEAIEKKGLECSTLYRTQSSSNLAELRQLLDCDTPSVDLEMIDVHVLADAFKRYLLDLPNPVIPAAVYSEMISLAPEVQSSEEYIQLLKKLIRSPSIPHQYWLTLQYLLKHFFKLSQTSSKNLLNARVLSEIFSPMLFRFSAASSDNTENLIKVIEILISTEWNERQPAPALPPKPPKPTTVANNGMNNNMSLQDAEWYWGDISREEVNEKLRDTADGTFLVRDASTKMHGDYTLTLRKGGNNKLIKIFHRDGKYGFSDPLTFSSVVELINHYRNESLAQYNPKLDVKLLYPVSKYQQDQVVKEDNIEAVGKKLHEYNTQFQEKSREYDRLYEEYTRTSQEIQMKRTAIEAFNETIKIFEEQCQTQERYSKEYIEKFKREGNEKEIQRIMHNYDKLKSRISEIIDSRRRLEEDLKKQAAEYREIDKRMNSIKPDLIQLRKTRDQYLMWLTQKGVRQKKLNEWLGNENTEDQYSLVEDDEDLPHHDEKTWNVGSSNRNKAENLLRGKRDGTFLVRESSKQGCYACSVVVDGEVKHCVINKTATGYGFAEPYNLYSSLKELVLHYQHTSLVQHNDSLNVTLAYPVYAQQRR
PI3K-α (PIK3CA) in MDA-MB-453 cells, sequence (P42336 whole entry): as the sequence (P42336 whole entry H1047R) above, with R1047H counted along it

For the compound `Cc1cc(C(C)Nc2ccc(Cl)nc2C(=O)O)c2oc(-c3cc4ccccc4[nH]3)cc(=O)c2c1` (single isomer, unassigned) [Example 223, 6-Chloro-3-[1-[2-(1H-indol-2-yl)-6-methyl-4-oxo-chromen-8-yl]ethylamino]pyridine-2-carboxylic acid], the figures for the IC50 in assay [1], in assay [2] and in assay [3] were 0.5 to 1 µM, less than 0.05 µM and less than 0.5 µM, respectively.

As for `Cc1cc(C(C)Nc2ccccc2C(=O)O)c2oc(-c3ccc4nc(C)sc4c3)cc(=O)c2c1` (single isomer, unassigned) [Example 74, 2-[1-[6-Methyl-2-(2-methyl-1,3-benzothiazol-6-yl)-4-oxo-chromen-8-yl]ethylamino]benzoic acid], the IC50 was 0.5 to 1 µM in assay [1], less than 0.05 µM in assay [2] and less than 0.5 µM in assay [3].

As for `Cc1cc([C@@H](C)Nc2cccc(F)c2C(=O)O)c2oc(-c3ccc4c(cnn4C)c3)cc(=O)c2c1` [Example 197, 2-Fluoro-6-[[(1R)-1-[6-methyl-2-(1-methylindazol-5-yl)-4-oxo-chromen-8-yl]ethyl]amino]benzoic acid], the IC50 was 0.5 to 1 µM in assay [1], less than 0.05 µM in assay [2] and less than 0.5 µM in assay [3].

With `Cc1cc([C@@H](C)Nc2ccc(Cl)cc2C(=O)O)c2oc(-c3ccc4c(cnn4C)c3)c(C)c(=O)c2c1` [Example 259, 5-Chloro-2-[[(1R)-1-[3,6-dimethyl-2-(1-methylindazol-5-yl)-4-oxo-chromen-8-yl]ethyl]amino]benzoic acid], the IC50 is less than 0.5 µM in assay [1], 0.05 to 0.1 µM in assay [2] and less than 0.5 µM in assay [3].

Turning to `Cc1cc([C@@H](C)Nc2cccnc2C(=O)O)c2oc(-c3ccc4nn(C)cc4c3)cc(=O)c2c1` [Example 226, 3-[[(1R)-1-[6-Methyl-2-(2-methylindazol-5-yl)-4-oxo-chromen-8-yl]ethyl]amino]pyridine-2-carboxylic acid], the results for the IC50 in assay [1], in assay [2] and in assay [3] were 1 to 5 µM, 0.1 to 0.5 µM and 0.5 to 1 µM, respectively.

For the compound `COc1ccc2cc(-c3cc(=O)c4cc(C)cc([C@@H](C)Nc5ccccc5C(=O)O)c4o3)cc(C)c2n1` [Example 248, 2-[[(1R)-1-[2-(2-Methoxy-8-methyl-6-quinolyl)-6-methyl-4-oxo-chromen-8-yl]ethyl]amino]benzoic acid], the IC50 lay within 1 to 5 µM in assay [1], 0.1 to 0.5 µM in assay [2] and 0.5 to 1 µM in assay [3].

Turning to `CC(Nc1ccc(Cl)nc1C(=O)O)c1cc(C(F)(F)F)cc2c(=O)cc(-c3ccc4cnn(C)c4c3)oc12` (single isomer, unassigned) [Example 108, 6-Chloro-3-[1-[2-(1-methylindazol-6-yl)-4-oxo-6-(trifluoromethyl)chromen-8-yl]ethylamino]pyridine-2-carboxylic acid], the IC50 in assay [1] was 0.5 to 1 µM; in assay [2] it was less than 0.05 µM; in assay [3], less than 0.5 µM.

For the compound `Cc1cc(C(C)Nc2ccccc2C(=O)O)c2oc(-c3cccc4nn(C)cc34)cc(=O)c2c1` (single isomer, unassigned) [Example 111, 2-[1-[6-Methyl-2-(2-methylindazol-4-yl)-4-oxo-chromen-8-yl]ethylamino]benzoic acid], the IC50 in assay [1] is 0.5 to 1 µM; in assay [2], 0.1 to 0.5 µM; in assay [3], less than 0.5 µM.

Regarding `Cc1cc([C@@H](C)Nc2ccc(C(F)(F)F)nc2C(=O)O)c2oc(-c3ccc4nn(C)cc4c3)c(C)c(=O)c2c1` [Example 236, 3-[[(1R)-1-[3,6-Dimethyl-2-(2-methylindazol-5-yl)-4-oxo-chromen-8-yl]ethyl]amino]-6-(trifluoromethyl)pyridine-2-carboxylic acid], the half-inhibitory concentration (IC50) in assay [1] is 0.5 to 1 µM; in assay [2], less than 0.05 µM; in assay [3], less than 0.5 µM.

Regarding `Cc1cc([C@@H](C)Nc2ccccc2C(=O)O)c2oc(-c3cc4cnccc4s3)c(C)c(=O)c2c1` [Example 203, 2-[[(1R)-1-(3,6-Dimethyl-4-oxo-2-thieno[3,2-c]pyridin-2-yl-chromen-8-yl)ethyl]amino]benzoic acid], the values for the IC50 in assay [1], in assay [2] and in assay [3] were less than 0.5 µM, less than 0.05 µM and less than 0.5 µM, respectively.

As to `Cc1cc(C(C)Nc2ccccc2C(=O)O)c2oc(-c3cnc4cc[nH]c4c3)cc(=O)c2c1` (single isomer, unassigned) [Example 71, 2-[1-[6-Methyl-4-oxo-2-(1H-pyrrolo[3,2-b]pyridin-6-yl)chromen-8-yl]ethylamino]benzoic acid], the figures for the IC50 in assay [1], in assay [2] and in assay [3] were 1 to 5 µM, 0.1 to 0.5 µM and less than 0.5 µM, respectively.

In the case of `Cc1cc(C(C)Nc2ccccc2C(=O)O)c2oc(-c3cc(C)c4nn(C)cc4c3)cc(=O)c2c1` (single isomer, unassigned) [Example 126, 2-[1-[2-(2,7-Dimethylindazol-5-yl)-6-methyl-4-oxo-chromen-8-yl]ethylamino]benzoic acid], the IC50 was 1 to 5 µM in assay [1], less than 0.05 µM in assay [2] and less than 0.5 µM in assay [3].

As to `Cc1cc(C(C)Nc2ccccc2C(=O)O)c2oc(-c3ccn4nccc4c3)cc(=O)c2c1` (single isomer, unassigned) [Example 113, 2-[1-(6-Methyl-4-oxo-2-pyrazolo[1,5-a]pyridin-5-yl-chromen-8-yl)ethylamino]benzoic acid], the figures for the IC50 in assay [1], in assay [2] and in assay [3] were 0.5 to 1 µM, less than 0.05 µM and less than 0.5 µM, respectively.

In the case of `Cc1cc(C(C)Nc2ccccc2C(=O)O)c2oc(-c3ccc4cn[nH]c4c3)c(C)c(=O)c2c1` (single isomer, unassigned) [Example 120, 2-[1-[2-(1H-Indazol-6-yl)-3,6-dimethyl-4-oxo-chromen-8-yl]ethylamino]benzoic acid], the IC50 in assay [1] is 0.5 to 1 µM; in assay [2], less than 0.05 µM; in assay [3], less than 0.5 µM.

Consider `Cc1cc(C(C)Nc2ccccc2C(=O)O)c2oc(-c3ccc4[nH]c(C)nc4c3)cc(=O)c2c1` (single isomer, unassigned) [Example 65, 2-[1-[6-Methyl-2-(2-methyl-1H-benzimidazol-5-yl)-4-oxo-chromen-8-yl]ethylamino]benzoic acid], for which the IC50 in assay [1] is 1 to 5 µM; in assay [2], 0.1 to 0.5 µM; in assay [3] it was less than 0.5 µM.

In the case of `Cc1cc(C(C)Nc2ccccc2C(=O)O)c2oc(-c3cccc4cn(C)nc34)cc(=O)c2c1` (single isomer, unassigned) [Example 116, 2-[1-[6-Methyl-2-(2-methylindazol-7-yl)-4-oxo-chromen-8-yl]ethylamino]benzoic acid], the IC50 in assay [1] was greater than 10 µM; in assay [2] it was 0.1 to 0.5 µM; in assay [3] it was less than 0.5 µM.

Regarding `Cc1cc(C(C)Nc2ccccc2C(=O)O)c2oc(-c3cc4cnccc4o3)cc(=O)c2c1` (single isomer, unassigned) [Example 22, 2-[1-(2-Furo[3,2-c]pyridin-2-yl-6-methyl-4-oxo-chromen-8-yl)ethylamino]benzoic acid], the IC50 in assay [1] is 0.5 to 1 µM; in assay [2], less than 0.05 µM; in assay [3] it was less than 0.5 µM.

`Cc1cc([C@@H](C)Nc2ccc(Cl)nc2C(=O)O)c2oc(-c3ccc4nc(C)sc4c3)c(C)c(=O)c2c1` [Example 246, 6-Chloro-3-[[(1R)-1-[3,6-dimethyl-2-(2-methyl-l,3-benzothiazol-6-yl)-4-oxo-chromen-8-yl]ethyl]amino]pyridine-2-carboxylic acid]: the IC50 in assay [1] was 0.5 to 1 µM; in assay [2], less than 0.05 µM; in assay [3], less than 0.5 µM.

For `CC(Nc1ccc(Cl)nc1C(=O)O)c1cc(C(F)(F)F)cc2c(=O)cc(-c3cc(Cl)c4nn(C)cc4c3)oc12` (single isomer, unassigned) [Example 193, 6-Chloro-3-[1-[2-(7-chloro-2-methyl-indazol-5-yl)-4-oxo-6-(trifluoromethyl)chromen-8-yl]ethylamino]pyridine-2-carboxylic acid], the IC50 in assay [1] is 0.5 to 1 µM; in assay [2], less than 0.05 µM; in assay [3] it was less than 0.5 µM.

Take `Cc1cc([C@@H](C)Nc2ccc(Cl)nc2C(=O)O)c2oc(-c3nc4ccccc4o3)c(C)c(=O)c2c1` [Example 263, 3-[[(1R)-1-[2-(1,3-benzoxazol-2-yl)-3,6-dimethyl-4-oxo-chromen-8-yl]ethyl]amino]-6-chloro-pyridine-2-carboxylic acid; 2,2,2-trifluoroacetic acid]: the IC50 in assay [1] was 1 to 5 µM; in assay [2], less than 0.05 µM; in assay [3] it was less than 0.5 µM.
